Patent publication US20220175766A1, “COMPOSITIONS AND METHODS OF TREATMENT” (GB004, Inc., priority 2019, published 2022)
Like-named read-outs stand apart in the source and are kept apart here.

Test: Phase 1a multiple ascending dose study (oral solution): plasma pharmacokinetics
Type: in vivo, human
Settings: human, plasma, oral; for concentration at 0.5 h: Hour 0.5; for concentration at 0.5 h / concentration at 1 h / concentration at 2 h / concentration at 3 h / concentration at 4 h / concentration at 6 h / concentration at 8 h / concentration at 12 h / concentration at 16 h / concentration at 24 h: read-out: Compound 1 concentration, Conc (SD); for concentration at 1 h: Hour 1; for concentration at 2 h: Hour 2; for concentration at 3 h: Hour 3; for concentration at 4 h: Hour 4; for concentration at 6 h: Hour 6; for concentration at 8 h: Hour 8; for concentration at 12 h: Hour 12; for concentration at 16 h: Hour 16; for concentration at 24 h: Hour 24; for AUC(0-t): read-out: AUC(0-t), mean; for AUC: read-out: AUC(0-τ), mean (SD); for Tmax: read-out: Tmax, median (range)
Protocol: Compound 1 was administered as the HCl-salt (prepared analogously to Example 2.1).
The secondary objective was to characterize the multiple dose pharmacokinetic (PK) parameters of Compound 1, after ascending doses. Secondary endpoints included determination of PK parameters in plasma and urine, fecal excretion and assessment of colonic biopsy samples.
Blood samples were collected at the following time points relative to dose administration on Day 1 and Day 7: pre-dose; 0.5, 1, 2, 3, 4, 6, 8, 12, 16 and 24 hours post dose. Analysis and concentration determinations were performed using a liquid chromatography-mass spectrometry and liquid chromatography-tandem mass spectrometry (LC/MS/MS) method.

[1] = 120 mg, Cohort 2, 120 mg once daily, Day 7
[2] = 120 mg, Cohort 2, 120 mg, Day 1
[3] = 120 mg, Cohort 4, 120 mg once daily, Day 7
[4] = 120 mg, Cohort 4, 120 mg, Day 1
[5] = 240 mg, Cohort 3, 240 mg once daily, Day 7
[6] = 240 mg, Cohort 3, 240 mg, Day 1

`CC(C)(C)OC(=O)N1CCN(Cc2ccn(Cc3ccc(Cl)cc3)c(=O)c2O)CC1` [Compound 1, tert-butyl 4-((1-(4-chlorobenzyl)-3-hydroxy-2-oxo-1,2-dihydropyridin-4-yl)methyl)piperazine-1-carboxylate] showed a Cmax (60 mg, Cohort 5, 60 mg, Day 1, read-out: Cmax, mean (SD)) of 5.06 ng/mL, a concentration at 0.5 h [1] of 11.1 ng/mL and a concentration at 1 h [1] of 7.7 ng/mL. For the same compound, the concentration at 2 h [1] was 4.5 ng/mL, the concentration at 3 h [1] was 3.19 ng/mL and the concentration at 4 h [1] was 1.6 ng/mL. For the same compound, the concentration at 6 h [1] was 2.04 ng/mL, the concentration at 8 h [1] was 2.26 ng/mL and the concentration at 12 h [1] was 1.41 ng/mL. The concentration at 16 h [1] was 1.39 ng/mL, the concentration at 24 h [1] was 0 ng/mL and the AUC(0-t) [1] was 48.2 ng·h/mL. The Cmax (120 mg, Cohort 2, 120 mg once daily, Day 7, read-out: Cmax, mean) was 11.4 ng/mL, the concentration at 0.5 h [2] was 9.54 ng/mL and the concentration at 1 h [2] was 6.08 ng/mL. It also gave a concentration at 3 h [2] of 1.95 ng/mL, a concentration at 4 h [2] of 0 ng/mL and a concentration at 6 h [2] of 0 ng/mL. It also gave a concentration at 8 h [2] of 0 ng/mL, a concentration at 12 h [2] of 0 ng/mL and a concentration at 16 h [2] of 0 ng/mL. For the same compound, the concentration at 24 h [2] was 0 ng/mL, the AUC [2] was 27.9 ng·h/mL and the Cmax (120 mg, Cohort 2, 120 mg, Day 1, read-out: Cmax, mean (SD)) was 9.54 ng/mL. For the same compound, the concentration at 0.5 h [3] was 15.6 ng/mL, the concentration at 1 h [3] was 9.34 ng/mL and the concentration at 2 h [3] was 5.32 ng/mL. The concentration at 3 h [3] was 3.69 ng/mL, the concentration at 4 h [3] was 2.98 ng/mL and the concentration at 6 h [3] was 3.3 ng/mL. It also gave a concentration at 8 h [3] of 3.03 ng/mL, a concentration at 12 h [3] of 2.59 ng/mL and a concentration at 16 h [3] of 2.26 ng/mL. It also gave a concentration at 24 h [3] of 1.92 ng/mL, an AUC(0-t) [3] of 75.8 ng·h/mL and a Cmax (120 mg, Cohort 4, 120 mg once daily, Day 7, read-out: Cmax, mean) of 15.6 ng/mL. The concentration at 0.5 h [4] was 11.9 ng/mL, the concentration at 1 h [4] was 8.03 ng/mL and the concentration at 3 h [4] was 2.68 ng/mL. The concentration at 4 h [4] was 1.48 ng/mL, the concentration at 6 h [4] was 1.14 ng/mL and the concentration at 8 h [4] was 0 ng/mL. For the same compound, the concentration at 12 h [4] was 0 ng/mL, the concentration at 16 h [4] was 0 ng/mL and the concentration at 24 h [4] was 0 ng/mL. The AUC [4] was 38.1 ng·h/mL, the Cmax (120 mg, Cohort 4, 120 mg, Day 1, read-out: Cmax, mean (SD)) was 12 ng/mL and the concentration at 0.5 h [5] was 28.5 ng/mL. It also gave a concentration at 1 h [5] of 20.5 ng/mL, a concentration at 2 h [5] of 10.3 ng/mL and a concentration at 3 h [5] of 7.61 ng/mL. The concentration at 4 h [5] was 6.99 ng/mL, the concentration at 6 h [5] was 6.8 ng/mL and the concentration at 8 h [5] was 6.44 ng/mL. It also gave a concentration at 12 h [5] of 4.66 ng/mL, a concentration at 16 h [5] of 3.27 ng/mL and a concentration at 24 h [5] of 2.53 ng/mL. It also gave an AUC(0-t) [5] of 139 ng·h/mL, a Cmax (240 mg, Cohort 3, 240 mg once daily, Day 7, read-out: Cmax, mean) of 28.8 ng/mL and a concentration at 0.5 h [6] of 25.7 ng/mL. For the same compound, the concentration at 1 h [6] was 15 ng/mL, the concentration at 3 h [6] was 5.97 ng/mL and the concentration at 4 h [6] was 4.12 ng/mL. The concentration at 6 h [6] was 3.39 ng/mL, the concentration at 8 h [6] was 3.02 ng/mL and the concentration at 12 h [6] was 3.13 ng/mL. For the same compound, the concentration at 16 h [6] was 2.25 ng/mL, the concentration at 24 h [6] was 1.35 ng/mL and the AUC [6] was 91.5 ng·h/mL. It also gave a Cmax (240 mg, Cohort 3, 240 mg, Day 1, read-out: Cmax, mean (SD)) of 25.7 ng/mL, a Tmax (Cohort 2, 120 mg, Day 1) of 30 min and a Tmax (Cohort 3, 240 mg, Day 1) of 30 min. The Tmax (Cohort 5, 60 mg, Day 1) was 30 min.
